# Where a name gives a salt, the structure may show the parent alone. Residues, ends and D or L forms follow the SMILES beside them. *: point of attachment. Tfa = O=C(C(F)(F)F)*
# What was measured:
# [1] = target: T1, NAD-dependent protein deacetylase sirtuin-3, mitochondrial (Homo sapiens, UniProt Q9NTG7); assay: Inhibition of recombinant human SIRT3 (118 to 399 residues) defatty-acylase activity expressed in Escherichia coli using SFP3 as substrate measured at 5 mins interval for 60 mins in presence of NAD+ by fluorescence assay
# T1 sequence (Q9NTG7 whole entry): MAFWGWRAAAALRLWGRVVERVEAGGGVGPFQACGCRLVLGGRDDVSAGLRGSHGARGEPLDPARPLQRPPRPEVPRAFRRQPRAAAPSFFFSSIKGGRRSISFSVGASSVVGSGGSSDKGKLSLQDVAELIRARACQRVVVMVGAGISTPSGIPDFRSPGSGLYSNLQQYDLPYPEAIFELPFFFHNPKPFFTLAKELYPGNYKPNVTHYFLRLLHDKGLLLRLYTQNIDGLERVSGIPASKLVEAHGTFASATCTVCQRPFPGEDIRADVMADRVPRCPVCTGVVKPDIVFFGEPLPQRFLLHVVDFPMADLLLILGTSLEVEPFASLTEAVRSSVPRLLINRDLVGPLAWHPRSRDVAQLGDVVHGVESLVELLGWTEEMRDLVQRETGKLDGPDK
# [2] = target: T2, NAD-dependent protein deacetylase sirtuin-2 (Homo sapiens, UniProt Q8IXJ6); assay: Inhibition of recombinant human SIRT2 deacylation activity expressed in Escherichia coli Rosetta2 using Fluor-de-Lys-SIRT2 deacetylase substrate measured after 2 hrs by fluorescence assay
# T2 sequence (Q8IXJ6 whole entry): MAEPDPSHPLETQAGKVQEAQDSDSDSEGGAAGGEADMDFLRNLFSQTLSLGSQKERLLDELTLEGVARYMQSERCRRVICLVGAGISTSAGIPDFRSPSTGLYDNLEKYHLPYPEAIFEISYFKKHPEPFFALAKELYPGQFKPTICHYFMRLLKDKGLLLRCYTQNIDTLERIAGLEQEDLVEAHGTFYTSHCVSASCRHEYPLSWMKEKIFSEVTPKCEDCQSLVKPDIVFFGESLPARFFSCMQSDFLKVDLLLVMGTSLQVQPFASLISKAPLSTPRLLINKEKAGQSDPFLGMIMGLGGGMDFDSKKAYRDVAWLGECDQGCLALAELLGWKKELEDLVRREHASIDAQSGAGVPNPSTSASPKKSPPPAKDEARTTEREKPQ
# [3] = target: T2, NAD-dependent protein deacetylase sirtuin-2; assay: Inhibition of recombinant human SIRT2 deacylation activity using Fluor de Lys Sirt2 as substrate measured at 5 mins interval for 30 mins in presence of NAD+ by fluorescence assay
# [4] = target: T2, NAD-dependent protein deacetylase sirtuin-2; assay: Inhibition of recombinant human SIRT2 defatty-acylase activity using SFP3 as substrate measured at 5 mins interval for 60 mins in presence of NAD+ by fluorescence assay
# [5] = target: T2, NAD-dependent protein deacetylase sirtuin-2; assay: Inhibition of recombinant human SIRT2 demyristoylase activity using p53(Myr)-AMC as substrate measured after 3 hrs in presence of NAD+ and trypsin by fluorescence assay
# [6] = target: T3, NAD-dependent protein deacetylase sirtuin-1 (Homo sapiens, UniProt Q96EB6); assay: Inhibition of recombinant human C-terminal His6-tagged SIRT1 (Met1 to Ser747 residues) defatty-acylase activity expressed in Escherichia coli using SFP3 as substrate measured at 5 mins interval for 60 mins in presence of NAD+ by fluorescence assay
# T3 sequence (Q96EB6 whole entry): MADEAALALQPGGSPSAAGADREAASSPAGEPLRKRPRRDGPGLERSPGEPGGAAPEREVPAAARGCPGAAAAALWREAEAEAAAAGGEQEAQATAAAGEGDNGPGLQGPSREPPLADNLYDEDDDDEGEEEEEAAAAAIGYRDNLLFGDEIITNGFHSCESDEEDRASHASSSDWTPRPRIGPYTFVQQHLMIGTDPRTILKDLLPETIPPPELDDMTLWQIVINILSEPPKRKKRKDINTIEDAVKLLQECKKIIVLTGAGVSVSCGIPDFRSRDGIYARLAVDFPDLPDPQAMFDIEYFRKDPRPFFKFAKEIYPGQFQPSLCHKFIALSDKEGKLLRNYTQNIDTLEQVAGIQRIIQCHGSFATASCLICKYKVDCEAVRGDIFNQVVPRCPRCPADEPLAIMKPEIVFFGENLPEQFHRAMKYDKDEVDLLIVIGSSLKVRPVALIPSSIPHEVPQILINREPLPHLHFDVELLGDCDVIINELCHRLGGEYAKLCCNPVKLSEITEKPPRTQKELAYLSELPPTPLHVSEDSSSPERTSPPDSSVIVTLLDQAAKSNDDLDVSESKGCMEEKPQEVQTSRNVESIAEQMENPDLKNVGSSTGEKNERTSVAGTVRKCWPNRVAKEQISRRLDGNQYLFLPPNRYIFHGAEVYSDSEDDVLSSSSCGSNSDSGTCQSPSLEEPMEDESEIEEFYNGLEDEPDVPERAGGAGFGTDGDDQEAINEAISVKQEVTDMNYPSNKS
compound,measurement,setting,value
CC[C@H](C)[C@H](NC(=O)[C@H](CCCNC(=N)N)NC(C)=O)C(=O)N[C@@H](CCCCNC(=O)C(F)(F)F)C(=O)N[C@@H](CCCNC(=N)N)C(=O)N[C@@H](Cc1ccc(O)cc1)C(N)=O (Ac-RIK(Tfa)RY-NH2),IC50,[1],540 nM
same,IC50,[2],31 nM
same,IC50,[3],67 nM
same,IC50,[4],320 nM
same,IC50,[5],1100 nM
same,IC50,[6],> 2000 nM
